The assay has as its system PCC7002:pAB125 clones. In words: Growth on low salt spectinomycin segregation plates. Type of assay: cell-based, Synechococcus sp. strain PCC 7002. On the procedure: 1 mL of the culture was washed once in BG-11 (2.500×g, 10 min spin) and streaked for single colonies on low salt media (BG-11+vB12) plates with various spectinomycin concentrations (sp15, 30, 60, 120, 240, 300, 360, and 500 μg/mL). These segregation plates were incubated at room temperature with low light overnight and then at 37° C. with continuous light or with a 12 h/12 h light/dark cycle for approximately 2 weeks.

The structures appear in SMILES notation.

For the compound `CN[C@@H]1[C@H](O)[C@H](NC)[C@H]2O[C@@]3(O)C(=O)C[C@@H](C)O[C@H]3O[C@@H]2[C@H]1O` [spectinomycin], the “growth on low salt plates” value runs as follows: (240 and 300 mg/L of spectinomycin, BG-11+vB12, about 2 weeks) “single colonies formed”; (higher spectinomycin concentrations (360, 500 μg/mL), BG-11+vB12) “No colonies were found”; (spectinomycin at 15 to 120 mg/L, BG-11+vB12, about 2 weeks) “abundant growth”.

Source of the values: patent US20140272949A1, “Methods for Fully Segregating Recombinant Marine Cyanobacteria” (ALGENOL BIOFUELS INC., priority 2013, published 2014).
